PMC10619691, “Effect of cyclic substituents on the anti-cancer activity and DNA interaction of ruthenium(II) bis-phenanthroline dipyridoquinoline” (Frontiers in Molecular Biosciences, 2023)

Columns and labels:
[1] = partition coefficient (log P), shake-flask method; type: physicochemical; conditions: phosphate buffered saline (pH 7.4) / 1-octanol
Excerpt: The role of lipophilicity in the activity of ruthenium (II) polypyridyl complexes is one that has been extensively reported ([Notaro and Gasser, 2017]). […] Based on this, we carried out a partition coefficient (log P) test using a shake-flask method to determine whether the marginal structural differences between VNK-754, VNK-572, and POW-12A affect their lipophilicity and to examine whether such a difference in lipophilicity confers any advantage to their anti-cancer activity. The log P results, as presented in Table 2, clearly show VNK-572 (0.014) and POW-12A (0.077) to be more lipophilic than VNK-754 (−0.874). […] Thus, along with varied DNA intercalating properties, this explains, in part, why there are appreciable differences in the cytotoxic effects of VNK572 and POW12A compared to VNK-754, even though they are generally similar in structure. For example, VNK-572 with an additional benzene ring can penetrate the bi-lipid-layered cell membrane better and achieve higher cellular and nuclear concentrations than VNK-754, producing a greater anti-tumor effect.
To study the lipophilicity of our complexes, we used the shake-flask method at 25.0 °C ± 0.1°C in line with the previously reported protocol ([Dubey et al., 2017]). Equal volumes of the aqueous phase (phosphate buffered saline, pH 7.4) and the 1-octanol phase were pre-saturated with each other overnight. A known amount of the complexes (respectively) was added to the aqueous phase, ensuring our final concentration was within the range of UV spectroscopic analysis; then, an equal volume of the pre-saturated […] phase was added. Both phases were then mixed in a conical flask and left shaking on a thermostatic shaker at a speed of 100 rpm overnight at room temperature. […] Considering that lipophilic compounds will partition into the octanol phase, the concentration of the complexes left in the aqueous phase was analyzed, respectively, by UV spectroscopy; then, the Log P value was calculated: Logp = Log10 ([solute] un-ionized octanol/[solute] un-ionized water).

HS DNA = assay: DNA binding by fluorescence (emission) titration; design: species or system herring; conditions: for binding constant / binding site size: emission titrations; for n′ (binding site size): titrating concentrated HS DNA into 5 μM solutions of ruthenium complex, direct fitting
Excerpt: VNK-754 is a structural analog of [Ru(phen)2dpq]^2+, a complex that intercalates the dpq (dpq = dipyrido[3,2-f:2′,3′-h]quinoxaline) ligand from the minor groove ([Greguric et al., 1997]). The dpq ligand presents a sufficiently large planar surface to allow classical intercalation, and it might be expected that extending the surface with substituents would enhance such binding. However, while this is observed with the addition of aromatic rings, as in the case of [Ru(phen)2dppz]^2+, this may not be true for the addition of a saturated ring that distorts the planarity of the extended ring system (Figure 6). Studies were thus undertaken to establish the binding modes of POW-12A and VNK-572. All complexes bound strongly to DNA, and binding constants and binding site sizes were determined from emission titrations to be 1.91 × 10^6 M^–1 and 0.38 Ru/base for POW-12A, and 1.46 × 10^6 M^–1 and 0.24 Ru/base for VNK-572 (Table 3). […] The smallest binding site size a pure intercalator can have is four bases. The binding site size of POW-12A is smaller than four bases; this is not consistent with binding via pure intercalation.
PBS buffer was prepared with NaCl (137 mM), KCl (2.70 mM), Na2HPO4 (10.1 mM), and KH2PO4 (1.77 mM) in nanopure water. Using HCl, the pH was adjusted to 7.40. PBS buffer was used for all photophysical experiments. For linear dichroism experiments, a PBS buffer without potassium was used. Solutions of open-circle and supercoiled φX174 DNA were obtained from New England Biolabs. Sodium salts of high-molecular-weight herring sperm (HS-DNA) and calf thymus (CT-DNA) from Sigma were dissolved in PBS buffer, and concentrations were determined spectrophotometrically using the extinction coefficient ε260 nm = 6600 M^−1 cm^−1 for nucleobase concentration. The alternating polynucleotide polydeoxyadenylic-thymidylic acid ([poly(dA-dT)]2) and polydeoxyguanylic-cytidylic acid ([poly(dG-dC)]2) from NUNABIO ([Whitfield et al., 2015]) were dissolved in PBS buffer, and their concentrations were determined using the extinction coefficients ε262 nm = 6700 M^−1 cm^−1 and ε254 nm = 8400 M^−1 cm^−1, respectively. Direct fitting to raw data from fluorescence titration experiments (titrating concentrated HS DNA into 5 μM solutions of ruthenium complex) was used to give the binding constant (KB) and binding site size (n′). The following equation is derived from the Scatchard equation: ∝^2∙KB/PD−KB/PD+1/PDDt+KB∙n^′+KB∙n^′ = 0, where Db/Dt=I−I0/I∞−I0 , PD is the phosphate: dye ratio, KB is the binding constant (M^−1), and n′ is the binding site size (bases per compound). The equation is in the form of a quadratic equation, where a = KB[Dt]/PD, b = −(KB/PD+1/PD[Dt ] +KB∙n′), and c = KBn′. The positive solution to this quadratic equation gives values for α, from which theoretical intensities at each PD are calculated. The least squares regression method was used, minimizing the squared residuals of the theoretical and experimental intensities and floating the values of KB, I0, I∞, and n′.

CT-DNA = assay: viscometry of DNA with bound complex; type: binding, calf; conditions: 25°C
Excerpt: This reduction reflects increased flexibility of the DNA due to electrostatic and steric factors, which is consistent with the LD results for POW-12A but can also occur if the DNA becomes kinked or bent upon binding a small molecule.
An uncalibrated Cannon-Manning extra-low charge semi-micro viscometer (size 75) was used to measure the relative intrinsic viscosity of dilute DNA solutions, according to the manufacturer’s instructions (Cannon Instrument Company) and as described previously ([MoradpourHafshejani et al., 2013]). The viscometer was immersed in a water bath thermostated at 25°C. The DNA concentration and viscometer volume ([…]) were kept constant for a series of added dye concentrations. The flow time for water was ∼177 s, and that for DNA solutions was >245 s. Measurements were carried out in triplicate and provided standard deviations of <±1 s. The flow times are related to the relative intrinsic viscosity according to Eq. 1, where [η] is the intrinsic viscosity in the presence of dye and [η]0 is the intrinsic viscosity of free DNA. t0, td, and tx represent the flow times for buffer only, naked DNA, and dye-bound DNA, respectively. […] If the persistence length is reduced or the DNA is bent (dynamically or statically), the slope will be lowered. tx−tt/td−tt3=η/η03=L/L0=1+αr. (1)

| LogP [1] | binding constant (HS DNA) | binding site size (HS DNA) [Ru/base] | n′ (binding site size) (HS DNA) [bases per compound] | Structure (SMILES) | effect on DNA viscosity / length (CT-DNA) |
| --- | --- | --- | --- | --- | --- |
| 0.077 | 1.91 × 10^6 M^–1 | 0.38 | 2.63 | F[P-](F)(F)(F)(F)F.F[P-](F)(F)(F)(F)F.[Ru+2].c1cnc2c(c1)c1ncc3c(c1c1cccnc12)CCC3.c1cnc2c(c1)ccc1cccnc12.c1cnc2c(c1)ccc1cccnc12 [POW-12A] | reduces the viscosity of DNA |
| 0.014 | 1.46 × 10^6 M^–1 | 0.24 | 4.16 | F[P-](F)(F)(F)(F)F.F[P-](F)(F)(F)(F)F.[Ru+2].c1cnc2c(c1)c1ncc3c(c1c1cccnc12)CCCC3.c1cnc2c(c1)ccc1cccnc12.c1cnc2c(c1)ccc1cccnc12 [VNK-572] | elongates DNA |
